Measured values: patent US20250288520A1, “Microemulsion Pharmaceutical Composition For Treatment Of Disorders Of The Anterior Segment Of The Eye” (SIFI S.P.A., priority 2022, published 2025)

Experiment: Bioavailability study in NZW rabbits after single dose topical administration, sorafenib content by LC-MS
Assay type: in vivo
Procedure: Bioavailability study in NZW rabbits after single dose administration (50 μL topical administration in the right eye) was conducted and content of sorafenib tosylate in plasma (PL), bulbar conjunctivae (BCJ), aqueous humor (AH), cornea (C), vitreous (V), retina (R), and sclera (SC) was evaluated after treatment at t=5, 15, 30, 60, 90, 120 min by LC-MS.
Thirty-six NZW male rabbits, weighing approximately 2 kg, were used in this study. The study was conducted in accordance with GLP standards at the test facility IRIS PHARMA. All animals were treated according to the Directive 2010/63/UE European Convention for the Protection of Vertebrate Animals used for Experimental and Other Scientific Purposes and to the ARVO Statement for the Use of Animals in Ophthalmic and Vision Research. All animals were housed individually in standard cages under identical temperature (18° C.±3° C.), relative humidity (45%-80%), and controlled enrichment conditions and exposed to a 12-h light and darkness cycle in continuously ventilated rooms (15-20 air volumes per hour). They received a standard dry pellet diet and water ad libitum. Only animals with no macroscopic ocular signs of irritation were involved in this study and randomly divided in six time-point groups of 6 animals each (Table 3).
Animals received a single 50 μL topical administration in the right eye and at the time-points listed in Table 3 they were anesthetized by an intramuscular injection of a mix xylazine/ketamine before euthanasia by an intracardiac injection of overdosed pentobarbital. The whole blood in EDTA anticoagulant tubes were sampled by intracardiac puncture, and plasma was prepared and frozen at −23° C.±7° C. Immediately after euthanasia, BCJ, AH, C, V, R, and SC were quickly and carefully dissected from both eyes and weighed, frozen in dry ice and at −23° C.±7° C. until assay. Content of sorafenib was determined in R and PL of both eyes in priority and in AH, BCJ, C, V and SC of both eyes following the rapid resolution liquid chromatography/tandem mass spectrometry method.

concentration at 120 min (male, NZW, rabbit, cornea, topical, 50 μL, 120 min (2 h) post treatment, SD=±596): 1710 ng/g
time of sorafenib maximum content in retina of treated eyes (single 50 μL instillation in right eye): 5 min
sorafenib maximum content in retina of treated eyes (single 50 μL instillation in right eye, 5 min after treatment): 170 ng/g
sorafenib in retina of left untreated eyes (single 50 μL instillation in right eye, all rabbits): no amount of sorafenib was detected
highest detected amount of sorafenib in plasma (two hours after treatment): 2 ng/g
Compound: CNC(=O)c1cc(Oc2ccc(NC(=O)Nc3ccc(Cl)c(C(F)(F)F)c3)cc2)ccn1 [sorafenib]
